# Test results from patent US7307166B1, “Oxpurine nucleosides and their congeners, and acyl, derivatives thereof, for improvement of hematopoiesis” (Wellstat Therapeutics Corporation, priority 1987, dated 2007).
# How the values were obtained:
# Balb/C female mice [1] = test: Hematopoietic recovery after cyclophosphamide in mice (spleen weight, blood cell counts); assay type: in vivo, mouse
# Balb/C female mice [2] = test: Hematopoietic recovery after 5-fluorouracil in mice; assay type: in vivo, mouse
# Protocol: 5-fluorouracil (5-FU) (150 mg/kg, i.p.) was administered to forty Balb/C female mice weighing approximately 20 grams each. Twenty-four hours later and each day thereafter for a total of 8 days, mice were given a 0.4 ml i.p. injection of either physiological saline (controls) or 5′-O-palmitoylguanosine (2.5 μmoles/mouse/day in 0.2% Tween 80). On days 7 and 14 following 5-FU administration half of the animals from each group were bled and then were sacrificed by cervical dislocation. Spleens were removed and weighed, and complete blood cells counts performed.
# 5-fluorouracil (5-FU) (150 mg/kg, i.p.) was administered to fifty-four Balb/C female mice weighing approximately 20 grams each. Twenty-four hours later and each day thereafter for a total of 7 days, mice were given a 0.4 ml i.p. injection of either physiological saline (controls) or palmitoylguanosine (2.5 μmoles/mouse/day in 0.2% Tween 80). On days 8, 10 and 12 following administration of 5-FU nine animals from each group were bled and then sacrificed by cervical dislocation. Spleens were removed and weighed, and complete blood cell counts performed.
# Twenty-eight female Balb/C mice weighing approximately 20 grams each received a 0.4 ml i.p. injection of either physiological saline (controls), or palmitoyldeoxyguanosine (1 μmole/mouse) daily for three days. On the fourth day 5-fluorouracil (5-FU) (150 mg/kg, i.p.) was administered to all 28 of the animals. On days 5, 8 and 11 following 5-FU administration 4 (day 5) or 5 (days 8 and 11) animals from both groups were bled and then sacrificed by cervical dislocation. Spleens were removed and weighed, and complete blood cell counts performed. […]
# Sixty female Balb/C mice weighing approximately 20 grams each were distributed into one of five treatment groups and treated once daily for three days by i.p. injection with 3′,5′-O—N^2-tripalmitoyl-2′-deoxyguanosine at a dose of either 1, 5, 10, 25, or 50 mg/kg/treatment in a Tween-DMSO vehicle (0.2% Tween-80 and 7.5% DMSO in physiological saline). Injection volume was 0.4 ml. An additional twelve animals (controls) received vehicle alone on those three days. On the fourth day all seventy-two animals received a single i.p. injection of 5-fluorouracil (5-FU) at a dose of 150 mg/kg. On days 7 and 10 following 5-FU administration six mice from each group were bled and then sacrificed by cervical dislocation. Six untreated mice were also bled and sacrificed to provide data on normal (basal) values. Spleens were removed and weighed, and complete blood cell counts performed.
# thymocytes = test: Corticosteroid-induced apoptosis in mouse thymus; assay type: in vivo
# Protocol: Thymic lymphocytes, or thymocytes, undergo a suicide process known as apoptosis or programmed cell death in response to various stimuli, including ionizing radiation, calcium ionophores, glucocorticoid hormones, and other agents. Apoptosis is also part of the normal physiological process of development and of lymphocyte (and other cell) selection.
# Eight male B6D2F1 mice weighing approximately twenty-five grams were given a single injection of either palmitoyldeoxyguanosine (25 mg/kg, i.p.) in a Tween-DMSO vehicle (0.02% Tween and 7.5% DMSO in physiological saline) or vehicle alone. Forty-eight hours later these mice were given an i.p. injection of a long-acting corticosteroid, methylprednisolone acetate (Depo-Medrol; 250 mg/kg). Forty-eight hours following administration of the corticosteroid, all eight of these animals and four additional untreated animals (basals) were sacrificed by cervical dislocation, the thymuses and spleens removed and weighed, and thymic cell number and viability measured by established methods.
# FDCPmix cells = test: FDCPmix cell proliferation in the presence of IL-3 (MTT assay); assay type: cell-based
# Protocol: The FDCPmix cell line was used as a suitable in vitro model for predicting the effects of hematopoietic factors on pluripotential stem cells. These cells can be maintained in an undifferentiated state in the presence of IL-3 or undergo multi-lineage development in the presence of specific hematopoietic growth factors.
# This level of proliferation (100%) served as the control value. Inhibition of proliferation by test compounds was represented as a percent of control.
# FDCPmix cells were plated at a density of 5×10^4 cells per well in 96-well plates (5×10^5/ml) using IMDM medium plus 10% fetal bovine serum. […] Test compounds were added at a decreasing concentrations ranging from 10 micrograms/ml down to 1 nanogram/ml. The test compounds included: 3′,5′-O—N^2-tripalmitoyl-2′-deoxyguanosine, 3′,5′-di-O-palmitoyl-2′-deoxy-guanosine, 3′,5′-O—N^2-trioctanoyl-2′-deoxyguanosine, 3′,5′-di-O-octanoyl-2′-deoxyguanosine, and 3′,5′-o-N^2-trioleyl-2′-deoxy-guanosine.
# interleukin-1-alpha = test: LPS-induced elevation of serum interleukin-1-alpha; assay type: in vivo, mouse; conditions: PdG 25 mg/kg i.p.
# Protocol: Sixty-three female Balb/C mice were randomly assigned to one of three groups. The animals in one group received a single daily dose of N^2,3′,5′-tripalmitoyldeoxyguanosine (PdG) (25 mg/kg, i.p.), while a second group received a single daily dose of the PdG treatment vehicle (control). The third group was left untreated. On the fourth day 100 μg salmonella typhimurium LPS was administered to all three groups. Serum samples were taken just prior to LPS administration (t=0) and at two, four, six, eight, ten, twelve, sixteen, and twenty hours after LPS administration. The samples were then frozen until the time of assay. Serum levels of TNF-alpha, and IFN-gamma were measured by ELISA.
# PdG also attenuated LPS-induced elevation of serum interleukin-1-alpha and interleukin-6.
# [3] = Ex 47: day 7 after CP, 2.5 μmoles/mouse/day
# [4] = Ex 53: day 5 after CP, palmitoylguanosine 2.0, palmitoyldeoxyguanosine 1.0 μmoles/mouse
# [5] = Ex 53: day 7 after CP, palmitoylguanosine 1.0 and 2.0, palmitoyldeoxyguanosine 1.0 μmoles/mouse
# [6] = Table 5 (Ex 62): 5 days after CP
# [7] = Table 6 (Ex 62): 7 days after CP
# [8] = Table 7 (Ex 63): 5 days after CP
# [9] = Table 8 (Ex 63): 7 days after CP
# [10] = Table 9: 7 days after 5-FU, 10 mg/kg pretreatment
# [11] = Table 9: 7 days after 5-FU, 25 mg/kg pretreatment
# [12] = Table 9: 7 days after 5-FU, 50 mg/kg pretreatment
# [13] = Table 10: 10 days after 5-FU, 5 mg/kg pretreatment
# [14] = Table 10: 10 days after 5-FU, 10 mg/kg pretreatment
# [15] = Table 10: 10 days after 5-FU, 25 mg/kg pretreatment
# [16] = Table 10: 10 days after 5-FU, 50 mg/kg pretreatment
smiles,measurement,setting,value
CCCCCCCCCCCCCCCC(=O)OC[C@H]1O[C@@H](n2cnc3c(=O)[nH]c(N)nc32)[C@H](O)[C@@H]1O,white blood cell (WBC) counts,"Balb/C female mice [1]; Ex 38: day 7 after CP, guanosine 5, acyl derivatives 2.5 μmoles/mouse/day in 0.2% Tween 80",greatest effect
same,spleen weight,"Balb/C female mice [1]; Ex 41: day 7 after CP, 5 μmoles/mouse/day in 0.2% Tween 80 on days 1-2, 1-4, 3-5, 4-6 or 1-6, vs saline",significantly greater
same,Total white blood cell (WBC) counts,"Balb/C female mice [1]; Ex 41: day 7 after CP, 5 μmoles/mouse/day, each timing group, vs saline",significantly greater
same,lymphocyte counts,"Balb/C female mice [1]; Ex 41: day 7 after CP, treatment on days 1-2 or 1-6",elevated
same,total neutrophil counts,"Balb/C female mice [1]; Ex 41: day 7 after CP, treatment on days 1-6",greatest increase
same,Neutrophils,Balb/C female mice [1]; [3],significantly elevated
same,spleen weight,Balb/C female mice [1]; [3],significantly elevated
same,total white blood cells,"Balb/C female mice [1]; Ex 47: day 7 after CP, 2.5 μmoles/mouse/day in 0.2% Tween 80 i.p. 6 days",significantly elevated
same,spleen weight,"Balb/C female mice [1]; Ex 50: day 5 after CP, 2 μmoles/mouse",significantly elevated
same,total neutrophil counts,"Balb/C female mice [1]; Ex 53: day 5 after CP, 1.0 μmoles/mouse",significantly increased
same,spleen weight,Balb/C female mice [1]; [4],significantly elevated
same,total neutrophil counts,Balb/C female mice [1]; [4],significantly elevated
same,white blood cell counts,Balb/C female mice [1]; [4],significantly elevated
same,spleen weight,Balb/C female mice [1]; [5],significantly elevated
same,total neutrophil counts,Balb/C female mice [1]; [5],significantly elevated
same,white blood cell counts,Balb/C female mice [1]; [5],significantly elevated
same,spleen weight,"Balb/C female mice [2]; Ex 42: day 7 after 5-FU 150 mg/kg, 2.5 μmoles/mouse/day in 0.2% Tween 80 i.p. 8 days","slight, but statistically significant, increase"
same,Lymphocytes,Balb/C female mice [2]; Ex 42: day 14 after 5-FU,significantly higher
same,Neutrophils,Balb/C female mice [2]; Ex 42: day 14 after 5-FU,significantly higher
same,Platelets,Balb/C female mice [2]; Ex 42: day 14 after 5-FU,significantly higher
same,spleen weight,Balb/C female mice [2]; Ex 42: day 14 after 5-FU,significantly heavier
same,total leukocytes,Balb/C female mice [2]; Ex 42: day 14 after 5-FU,significantly higher
same,number of platelets,"Balb/C female mice [2]; Ex 43: day 8 after 5-FU, 2.5 μmoles/mouse/day in 0.2% Tween 80 i.p. 7 days",significantly greater
same,number of platelets,Balb/C female mice [2]; Ex 43: day 10 after 5-FU,greater numbers
same,spleen size,Balb/C female mice [2]; Ex 43: day 10 after 5-FU,significantly larger
same,number of neutrophils vs control,Balb/C female mice [2]; Ex 43: day 12 after 5-FU,3 fold
same,spleen weight vs control mice,Balb/C female mice [2]; Ex 43: day 12 after 5-FU,more than double
"CCCCCCCCCCCCCCCC(=O)Nc1nc2c(ncn2[C@H]2C[C@H](OC(=O)CCCCCCCCCCCCCCC)[C@@H](COC(=O)CCCCCCCCCCCCCCC)O2)c(=O)[nH]1 [PdG, 3′,5′-O-N^2-tripalmitoyl-2′-deoxyguanosine]",Neutrophils,Balb/C female mice [1]; [6],2.5 ± .3 K/μl
same,WBC,Balb/C female mice [1]; [6],4.1 ± .4 K/μl
same,Spleen,"Balb/C female mice [1]; Table 5 (Ex 62): 5 days after CP 250 mg/kg, triPdG 25 mg/kg/treatment, diPdG molar equivalent, i.p. daily",77 ± 7 mg
same,Neutrophils,Balb/C female mice [1]; [7],9.9 ± .9 K/μl
same,Platelets,Balb/C female mice [1]; [7],549 ± 25 K/μl
same,WBC,Balb/C female mice [1]; [7],13.4 ± .4 K/μl
same,Spleen,"Balb/C female mice [1]; Table 6 (Ex 62): 7 days after CP, triPdG 25 mg/kg, diPdG molar equivalent, daily 5 days",156 ± 12 mg
same,Neutrophils,Balb/C female mice [1]; [8],0.6 ± .1 K/μl
same,WBC,Balb/C female mice [1]; [8],3.6 ± .4 K/μl
same,Spleen,"Balb/C female mice [1]; Table 7 (Ex 63): 5 days after CP 250 mg/kg, TriPdG 25 mg/kg/treatment, others molar equivalent, i.p. daily",73 ± 3 mg
same,Neutrophils,Balb/C female mice [1]; [9],7.3 ± .3 K/μl
same,Platelets,Balb/C female mice [1]; [9],674 ± 37 K/μl
same,WBC,Balb/C female mice [1]; [9],3.6 ± .4 K/μl
same,Spleen,"Balb/C female mice [1]; Table 8 (Ex 63): 7 days after CP, TriPdG 25 mg/kg, others molar equivalent, daily 5 days",198 ± 23 mg
same,Cells/Thymus,"thymocytes; 25 mg/kg i.p. 48 h before Depo-Medrol 250 mg/kg, 48 h after",64 ± 12 ×10^6
same,Spleen Wt.,"thymocytes; 25 mg/kg i.p. once, 48 h before Depo-Medrol 250 mg/kg, 48 h after corticosteroid",61 ± 11 mg
same,% Viable,"thymocytes; thymic cells, 25 mg/kg i.p. 48 h before Depo-Medrol 250 mg/kg, 48 h after",87 ± 3 %
same,Platelets,"Balb/C female mice [2]; Table 9: 7 days after 5-FU, 5 mg/kg pretreatment",682 ± 66 K/μl
same,Platelets,Balb/C female mice [2]; [10],571 ± 41 K/μl
same,Spleen,Balb/C female mice [2]; [10],83 ± 6 mg
same,Platelets,Balb/C female mice [2]; [11],587 ± 19 K/μl
same,Spleen,Balb/C female mice [2]; [11],93 ± 5 mg
same,Platelets,Balb/C female mice [2]; [12],596 ± 43 K/μl
same,Spleen,Balb/C female mice [2]; [12],102 ± 4 mg
same,Neutrophils,"Balb/C female mice [2]; Table 10: 10 days after 5-FU, 1 mg/kg pretreatment",0.4 ± .2 K/μl
same,Neutrophils,Balb/C female mice [2]; [13],1.6 ± .4 K/μl
same,Spleen,Balb/C female mice [2]; [13],157 ± 13 mg
same,Neutrophils,Balb/C female mice [2]; [14],1.8 ± .4 K/μl
same,Spleen,Balb/C female mice [2]; [14],169 ± 24 mg
same,Lymphocytes,Balb/C female mice [2]; [15],8.3 ± .4 K/μl
same,Neutrophils,Balb/C female mice [2]; [15],2.9 ± .4 K/μl
same,Spleen,Balb/C female mice [2]; [15],293 ± 17 mg
same,WBC,Balb/C female mice [2]; [15],11.4 ± .6 K/μl
same,Lymphocytes,Balb/C female mice [2]; [16],8.3 ± 1.0 K/μl
same,Neutrophils,Balb/C female mice [2]; [16],2.2 ± .5 K/μl
same,Spleen,Balb/C female mice [2]; [16],320 ± 39 mg
same,WBC,Balb/C female mice [2]; [16],10.8 ± 1.6 K/μl
same,Cell proliferation (% of Control),FDCPmix cells; Dose 10 ng,78 ± 1 % of Control
same,Cell proliferation (% of Control),FDCPmix cells; Dose 39 ng,76 ± 2 % of Control
same,Cell proliferation (% of Control),FDCPmix cells; Dose 156 ng,72 ± 3 % of Control
same,Cell proliferation (% of Control),FDCPmix cells; Dose 625 ng,60 ± 2 % of Control
same,Cell proliferation (% of Control),FDCPmix cells; Dose 2.5 μg,51 ± .7 % of Control
same,Cell proliferation (% of Control),"FDCPmix cells; Dose 10 μg, 48 hours, IL-3 25 units/ml",51 ± .6 % of Control
same,LPS-induced elevation of serum interleukin-1-alpha,interleukin-1-alpha,attenuated
